Experimental data taken from the supplement of paper PMC5908809.

Tests used:
[1] = system: normal NK cells expanded with K562-aAPC; assay: percent inhibition of viability; higher = more inhibition; settings: 72 h, IL-2 2.5 ng/mL
Description: (§1)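 Drug sensitivity and resistance testing on K562-aAPC-expanded normal NK cells: 5 concentrations (10-fold steps over a 10,000-fold range), 72 h at 37 °C, viability by CellTiter-Glo normalised to DMSO and benzethonium chloride controls; DSS from the fitted curve.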

[2] = system: IMC-1 (IL-2 20 ng/mL); assay: drug sensitivity score (DSS) (DSS units); higher = more sensitive; extreme values may be limits of the assay; settings: 72 h
[3] = system: normal primary NK cells, pool 2 (3 donors) (IL-2 2.5 ng/mL); assay: as above; settings: 72 h
[4] = system: normal primary NK cells, pool 3 (3 donors) (IL-2 2.5 ng/mL); assay: as above; settings: 72 h
[5] = system: IMC-1 (IL-2 20 ng/mL); assay: percent inhibition of viability; higher = more inhibition; settings: 72 h
[6] = system: normal primary NK cells, pool 2 (3 donors) (IL-2 2.5 ng/mL); assay: as above; settings: 72 h
[7] = system: normal primary NK cells, pool 3 (3 donors) (IL-2 2.5 ng/mL); assay: as above; settings: 72 h
[8] = system: normal NK cells expanded with K562-aAPC; assay: drug sensitivity score (DSS) (DSS units); higher = more sensitive; extreme values may be limits of the assay; settings: 72 h; IL-2 2.5 ng/mL
Description: as §1

[9] = system: YT (IL-2 2.5 ng/mL); assay: as above; settings: 72 h
[10] = system: NK-92 (IL-2 2.5 ng/mL); assay: as above; settings: 72 h
[11] = system: SNK-6 (IL-2 2.5 ng/mL); assay: as above; settings: 72 h
[12] = system: DERL-7 (IL-2 2.5 ng/mL); assay: as above; settings: 72 h
[13] = system: NKL (IL-2 2.5 ng/mL); assay: as above; settings: 72 h
[14] = system: NK-YS (IL-2 2.5 ng/mL); assay: as above; settings: 72 h
[15] = system: KAI3 (IL-2 2.5 ng/mL); assay: as above; settings: 72 h
[16] = system: normal primary NK cells, pool 1 (3 donors) (IL-2 2.5 ng/mL); assay: as above; settings: 72 h
[17] = system: normal primary NK cells, pool 1 (3 donors), resting (IL-2 0 ng/mL); assay: as above; settings: 72 h
[18] = system: KHYG-1 (IL-2 2.5 ng/mL); assay: as above; settings: 72 h
[19] = system: YT (IL-2 2.5 ng/mL); assay: percent inhibition of viability; higher = more inhibition; settings: 72 h
[20] = system: NK-92 (IL-2 2.5 ng/mL); assay: as above; settings: 72 h
[21] = system: SNK-6 (IL-2 2.5 ng/mL); assay: as above; settings: 72 h
[22] = system: DERL-7 (IL-2 2.5 ng/mL); assay: as above; settings: 72 h
[23] = system: NKL (IL-2 2.5 ng/mL); assay: as above; settings: 72 h
[24] = system: NK-YS (IL-2 2.5 ng/mL); assay: as above; settings: 72 h
[25] = system: KAI3 (IL-2 2.5 ng/mL); assay: as above; settings: 72 h
[26] = system: normal primary NK cells, pool 1 (3 donors) (IL-2 2.5 ng/mL); assay: as above; settings: 72 h
[27] = system: normal primary NK cells, pool 1 (3 donors), resting (IL-2 0 ng/mL); assay: as above; settings: 72 h
[28] = system: KHYG-1 (IL-2 2.5 ng/mL); assay: as above; settings: 72 h

CCN(CC)CCCC(C)Nc1c2ccc(Cl)cc2nc2ccc(OC)cc12 (configuration not stated) [Mepacrine] (max concentration tested 50000 nM)
percent inhibition of viability [%]
Settings | 5 nM | 50 nM | 500 nM | 5000 nM | 50000 nM
[1] | -2.84 | -3.46 | -4.79 | 100 | 101
[5] | -0.62 | -1.1 | 2.08 | 100 | 101
[6] | -13.9 | -3.31 | 9.39 | 98 | 101
[7] | -11.7 | 0.46 | 1.96 | 98.8 | 101

Settings | drug sensitivity score
[2] | 18.2
[3] | 19.4
[4] | 18.1
[8] | 17.6

CC1(C)CCC(CN2CCN(c3ccc(C(=O)NS(=O)(=O)c4ccc(NCC5CCOCC5)c([N+](=O)[O-])c4)c(Oc4cnc5[nH]ccc5c4)c3)CC2)=C(c2ccc(Cl)cc2)C1 [Venetoclax] (max concentration tested 10000 nM)
Settings | drug sensitivity score
[9] | 14.1
[10] | 5.65
[11] | 26.1
[12] | 16.2
[13] | 18.4
[14] | 7.95
[15] | 33.6
[16] | 8.04
[17] | 34.5
[18] | 8.64

percent inhibition of viability [%]
Settings | [19] | [20] | [21] | [22] | [23] | [24] | [25] | [26] | [27] | [28]
1 nM | 3.82 | -4.75 | 10.4 | 1.21 | 5.96 | 4.6 | 27.7 | -1.92 | -13.2 | -4.77
10 nM | 7.84 | 2.95 | 48.6 | 17 | 19.3 | 3.22 | 55.8 | -1.34 | 53.6 | -0.91
100 nM | 10.9 | 18.2 | 50.4 | 36.3 | 45.6 | 6.71 | 71 | 4.44 | 87.3 | 1.35
1000 nM | 67.4 | 17 | 74.7 | 54.6 | 55.5 | 25.8 | 91.3 | 36.7 | 91.6 | 29.1
10000 nM | 88.4 | 66.6 | 96.6 | 87.8 | 85.8 | 82.6 | 98.7 | 67.1 | 91.2 | 82.5

O=C(O)C(=O)O.[NH-][C@@H]1CCCC[C@H]1[NH-].[Pt+2] [Oxaliplatin] (max concentration tested 100000 nM)
percent inhibition of viability [%]
Settings | 10 nM | 100 nM | 1000 nM | 10000 nM | 100000 nM
[1] | 0.69 | 4.04 | 21.3 | 86.9 | 101
[5] | -0.91 | 5.5 | 6.16 | 51.1 | 101
[6] | -2.45 | -3.26 | 15.2 | 44.2 | 93.1
[7] | -8.94 | -0.68 | 20.4 | 44 | 97.6

Settings | drug sensitivity score
[2] | 11.6
[3] | 10.7
[4] | 11.3
[8] | 18.5

Oc1ncc(N(CCCl)CCCl)c(O)n1 [Uramustine] (max concentration tested 10000 nM)
percent inhibition of viability [%]
Settings | 1 nM | 10 nM | 100 nM | 1000 nM | 10000 nM
[1] | -9.68 | -7.07 | -4 | 3.8 | 14.6
[5] | -9.69 | 0.32 | 0.64 | 0.1 | 6.18
[6] | -0.88 | 5.22 | 7.92 | 6.65 | 14.2
[7] | -4.89 | 6.36 | 6.72 | 4.62 | 8.5

Settings | drug sensitivity score
[2] | 0
[3] | 0.26
[4] | 0
[8] | 0.53

Oc1ncc(N(CCCl)CCCl)c(O)n1 [Uracil mustard] (max concentration tested 10000 nM)
Settings | drug sensitivity score
[9] | 0
[10] | 1.65
[11] | 0
[12] | 0
[13] | 0.45
[14] | 1.03
[15] | 1.5
[16] | 0
[17] | 1.83
[18] | 0

percent inhibition of viability [%]
Settings | [19] | [20] | [21] | [22] | [23] | [24] | [25] | [26] | [27] | [28]
1 nM | -3.44 | -13 | -5.93 | -3.55 | -13 | -4.38 | -2.41 | 1.1 | 1.93 | -4.85
10 nM | -2.84 | 2.85 | -12.3 | -2.92 | -8.44 | -2.31 | -4.28 | 14.8 | 12.8 | -7.99
100 nM | -1.58 | -5.3 | -16.6 | 0.29 | 1.52 | -0.87 | 4.07 | 6.41 | 14.2 | -5.32
1000 nM | 6.78 | 11.1 | -20.1 | 1.68 | 7.38 | 8.35 | 10.1 | 7.51 | 7.77 | 0.5
10000 nM | 8.3 | 19.6 | -11.1 | -8.73 | 14.1 | 16.4 | 23.1 | 12.4 | 16.2 | 6.88
